# According to ChEMBL document CHEMBL3885861, “Open TG-GATES”:
# Species: Rattus norvegicus
# Assay: Open TG-GATES - Regimen: Single
# Assay type: toxicity, organism-based, Sprague-Dawley
# Set-up: regimen Single, gender Male, age 6 weeks
# Conditions: in vivo, po, 1000 mg/kg, route gavage, dose level High; for APTT / Bas / Eos / Fbg / Hb / Ht / Lym / MCH / MCHC / MCV / Mono / Neu / PT / Plat / RBC / Ret / WBC: tissue Blood; for KIDNEY_L / KIDNEY_R / KIDNEY_TOTAL: tissue Kidney; for LIVER: tissue Liver; for A/G / ALP / ALT / AST / BUN / CRE / Ca / Cl / DBIL / GLC / IP / K / LDH / Na / PL / RALB / TBIL / TC / TG / TP / gamma-GTP: tissue Plasma
smiles,measurement,setting,value
C[C@H]1O[C@H](O[C@H]2[C@H](O)[C@@H](O)[C@@H](O[C@H]3[C@H](O)[C@@H](O)C(O)O[C@@H]3CO)O[C@@H]2CO)[C@H](O)[C@@H](O)[C@@H]1N[C@H]1C=C(CO)[C@@H](O)[C@H](O)[C@H]1O (some centres not stated) [ACARBOSE],TERMINAL_BW,3 h,197.2 g
same,APTT,3 h,17.5 s
same,Bas,3 h,0%
same,Eos,3 h,1%
same,Fbg,3 h,289.2 mg/dL
same,Hb,3 h,13.7 g/dL
same,Ht,3 h,42%
same,Lym,3 h,82.4%
same,MCH,3 h,20.7 pg
same,MCHC,3 h,32.7%
same,MCV,3 h,63.3 fL
same,Mono,3 h,2.2%
same,Neu,3 h,13.8%
same,PT,3 h,13.2 s
same,Plat,3 h,116 x10_4/uL
same,RBC,3 h,664 x10_4/ul
same,Ret,3 h,8%
same,WBC,3 h,88.8 x10_2/uL
same,KIDNEY_L,3 h,0.9 g
same,KIDNEY_R,3 h,0.9 g
same,KIDNEY_TOTAL,3 h,1.7 g
same,LIVER,3 h,8.2 g
same,A/G,3 h,0.9
same,ALP,3 h,1484.6 IU/L
same,ALT,3 h,38 IU/L
same,AST,3 h,73.6 IU/L
same,BUN,3 h,10.6 mg/dL
same,CRE,3 h,0.2 mg/dL
same,Ca,3 h,11 mg/dL
same,Cl,3 h,104.4 meq/L
same,DBIL,3 h,0.004 mg/dL
same,GLC,3 h,166.2 mg/dL
same,IP,3 h,10 mg/dL
same,K,3 h,4 meq/L
same,LDH,3 h,62.6 IU/L
same,Na,3 h,141.4 meq/L
same,PL,3 h,131.4 mg/dL
same,RALB,3 h,2.5 g/dL
same,TBIL,3 h,0.054 mg/dL
same,TC,3 h,71.4 mg/dL
same,TG,3 h,45.2 mg/dL
same,TP,3 h,5.2 g/dL
same,gamma-GTP,3 h,1 IU/L
same,TERMINAL_BW,6 h,198.5 g
same,APTT,6 h,17.1 s
same,Bas,6 h,0%
same,Eos,6 h,1%
same,Fbg,6 h,266.4 mg/dL
same,Hb,6 h,13.3 g/dL
same,Ht,6 h,41.1%
same,Lym,6 h,74.8%
same,MCH,6 h,20.9 pg
same,MCHC,6 h,32.5%
same,MCV,6 h,64.2 fL
same,Mono,6 h,3%
same,Neu,6 h,20.2%
same,PT,6 h,13.5 s
same,Plat,6 h,118.8 x10_4/uL
same,RBC,6 h,640.4 x10_4/ul
same,Ret,6 h,8.2%
same,WBC,6 h,81.7 x10_2/uL
same,KIDNEY_L,6 h,0.9 g
same,KIDNEY_R,6 h,0.9 g
same,KIDNEY_TOTAL,6 h,1.8 g
same,LIVER,6 h,7.8 g
same,A/G,6 h,0.9
same,ALP,6 h,1359.2 IU/L
same,ALT,6 h,34.4 IU/L
same,AST,6 h,73.8 IU/L
same,BUN,6 h,9.4 mg/dL
same,CRE,6 h,0.2 mg/dL
same,Ca,6 h,10.6 mg/dL
same,Cl,6 h,104 meq/L
same,DBIL,6 h,0.004 mg/dL
same,GLC,6 h,167.2 mg/dL
same,IP,6 h,10 mg/dL
same,K,6 h,4 meq/L
same,LDH,6 h,61.6 IU/L
same,Na,6 h,140.4 meq/L
same,PL,6 h,128.8 mg/dL
same,RALB,6 h,2.4 g/dL
same,TBIL,6 h,0.066 mg/dL
same,TC,6 h,72.2 mg/dL
same,TG,6 h,35.4 mg/dL
same,TP,6 h,5 g/dL
same,gamma-GTP,6 h,1 IU/L
same,TERMINAL_BW,9 h,195.6 g
same,APTT,9 h,17 s
same,Bas,9 h,0.4%
same,Eos,9 h,0.8%
same,Fbg,9 h,306 mg/dL
same,Hb,9 h,13.6 g/dL
same,Ht,9 h,41.9%
same,Lym,9 h,78.2%
same,MCH,9 h,20.8 pg
same,MCHC,9 h,32.3%
same,MCV,9 h,64.2 fL
same,Mono,9 h,2.2%
same,Neu,9 h,18%
same,PT,9 h,13.4 s
same,Plat,9 h,117.8 x10_4/uL
same,RBC,9 h,654.4 x10_4/ul
same,Ret,9 h,7.9%
same,WBC,9 h,87.1 x10_2/uL
same,KIDNEY_L,9 h,0.9 g
same,KIDNEY_R,9 h,0.9 g
same,KIDNEY_TOTAL,9 h,1.8 g
same,LIVER,9 h,7.4 g
same,A/G,9 h,0.9
same,ALP,9 h,1457.4 IU/L
same,ALT,9 h,36 IU/L
same,AST,9 h,75.8 IU/L
same,BUN,9 h,8.8 mg/dL
same,CRE,9 h,0.2 mg/dL
same,Ca,9 h,10.6 mg/dL
same,Cl,9 h,105.2 meq/L
same,DBIL,9 h,0.002 mg/dL
same,GLC,9 h,168.8 mg/dL
same,IP,9 h,10.1 mg/dL
same,K,9 h,3.8 meq/L
same,LDH,9 h,67.2 IU/L
same,Na,9 h,142 meq/L
same,PL,9 h,119 mg/dL
same,RALB,9 h,2.5 g/dL
same,TBIL,9 h,0.064 mg/dL
same,TC,9 h,70.8 mg/dL
same,TG,9 h,24 mg/dL
same,TP,9 h,5.3 g/dL
same,gamma-GTP,9 h,1.2 IU/L
same,TERMINAL_BW,24 h,212.7 g
same,APTT,24 h,18.7 s
same,Bas,24 h,0%
same,Eos,24 h,1.2%
same,Fbg,24 h,291.4 mg/dL
same,Hb,24 h,13.4 g/dL
same,Ht,24 h,40.9%
same,Lym,24 h,72.2%
same,MCH,24 h,20.9 pg
same,MCHC,24 h,32.6%
same,MCV,24 h,64.1 fL
same,Mono,24 h,2.8%
same,Neu,24 h,23%
same,PT,24 h,13 s
same,Plat,24 h,118.2 x10_4/uL
same,RBC,24 h,638.4 x10_4/ul
same,Ret,24 h,7.9%
same,WBC,24 h,103.5 x10_2/uL
same,KIDNEY_L,24 h,0.9 g
same,KIDNEY_R,24 h,0.9 g
same,KIDNEY_TOTAL,24 h,1.8 g
same,LIVER,24 h,9.8 g
same,A/G,24 h,0.9
same,ALP,24 h,1691 IU/L
same,ALT,24 h,44.4 IU/L
same,AST,24 h,75.4 IU/L
same,BUN,24 h,14.6 mg/dL
same,CRE,24 h,0.2 mg/dL
same,Ca,24 h,10.7 mg/dL
same,Cl,24 h,105.6 meq/L
same,DBIL,24 h,0.01 mg/dL
same,GLC,24 h,173.4 mg/dL
same,IP,24 h,7.9 mg/dL
same,K,24 h,4 meq/L
same,LDH,24 h,66.2 IU/L
same,Na,24 h,142.8 meq/L
same,PL,24 h,132.6 mg/dL
same,RALB,24 h,2.6 g/dL
same,TBIL,24 h,0.06 mg/dL
same,TC,24 h,72.2 mg/dL
same,TG,24 h,70.8 mg/dL
same,TP,24 h,5.5 g/dL
same,gamma-GTP,24 h,1 IU/L
